Experimental data from ChEMBL document CHEMBL1201862, “PubChem BioAssay data set” (2004).
Active and inactive are the calls of the source.

Columns and labels:
Vero [1] = assay: cells; format: functional, cell-based; details: Chlorocebus sabaeus
[2] = target: Hepatocyte nuclear factor 4-alpha (Homo sapiens, UniProt P41235); format: functional, cell-based;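 further: biochemical luminescence-based dose-response counterscreen measuring inhibition of HNF4 dimerization, run alongside a screen for blockers of ABHD5–perilipin-5 interaction; split luciferase complementation of HNF4 fusion proteins in cell lysate measuring dimerization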
Vero [3] = assay: cells; format: functional; details: Chlorocebus sabaeus
HEK293 [4] = assay: cells; details: Homo sapiens
HEK293 [5] = assay: cells; details: Homo sapiens; remark: listed apart in the source
Mu-type opioid receptor = Mu-type opioid receptor (Homo sapiens, UniProt P35372); assay: Counterscreen for agonists of heterodimerization of the mu 1 (OPRM1) and delta 1 (OPRD1) opioid receptors: Luminescence-based cell-based high throughput dose response assay to identify agonists of OPRM1 homodimerization.; format: functional;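 further: U2OS cells expressing OPRM1 and beta-arrestin as split beta-galactosidase partners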
[6] = target: 5-hydroxytryptamine receptor 5A (Homo sapiens, UniProt P47898); assay: Counterscreen for agonists of OPRM1-OPRD1 heterodimerization: luminescence-based cell-based high throughput dose response assay to identify agonists of 5-hydroxytryptamine (serotonin) 5A receptor (HTR5A). [Related pubchem assays (depositor defined):AID504326, AID504355, AID504692, AID504904, AID504905]; format: functional
[7] = target: Delta-type opioid receptor (Homo sapiens, UniProt P41143); assay: Counterscreen for agonists of heterodimerization of the mu 1 (OPRM1) and delta 1 (OPRD1) opioid receptors: Luminescence-based cell-based high throughput dose response assay to identify agonists of OPRD1 homodimerization. [Related pubchem assays (depositor defined):AID504326, AID504355, AID504692, AID504904, AID504905]; format: functional
[8] = target: Type-1 angiotensin II receptor (Homo sapiens, UniProt P30556); assay: antagonism of angiotensin II type 1 receptor – cell-based, uHTS hits, selectivity assay for APJ receptor antagonist project, dose response (AID 463214); format: functional;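 further: antagonist potency against angiotensin II stimulated AT1 response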
Beta-galactosidase [9] = target: T1, Beta-galactosidase (Escherichia coli, UniProt Q8VNN2); assay: PubChem AID 485352; format: functional
[10] = target: Lytic switch protein BZLF1 (Epstein-Barr virus (strain B95-8) (HHV-4) (Human herpesvirus 4), UniProt P03206); assay: inhibition of BZLF1 ZTA DNA binding – biochemical, fluorescence polarization, Epstein-Barr virus, 1536-well, counter-screen for EBNA-1 inhibitor project, dose response (AID 2377); parameters: species or system human gammaherpesvirus 4;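 further: fluorescence polarization of Cy5-labelled ZRE DNA probe bound by purified Zta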
[11] = target: Epstein-Barr nuclear antigen 1 (Epstein-Barr virus (strain B95-8) (HHV-4) (Human herpesvirus 4), UniProt P03211); assay: inhibition of EBV nuclear antigen 1 DNA binding – biochemical, fluorescence polarization, 1536-well, dose response (AID 2381); parameters: species or system human gammaherpesvirus 4;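 further: fluorescence polarization of a Cy5 DNA probe bound by EBNA-1 protein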
cells = format: functional, cell-based
[12] = luciferase reporter signal reduction – luminescence, H4-C neuroglioblastoma cells, dose response (AID 2458); format: functional, cell-based;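 further: H4 neuroglioblastoma cells stably carrying a luciferase reporter gene fusion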
[13] = luciferase reporter signal suppression in cells – H4 neuroglioma cells, luminescence, dose response (AID 1990); format: functional, cell-based
BJ [14] = assay: cells; format: functional, cell-based; details: Homo sapiens
[15] = alpha-synuclein stem-loop translation blockers – luminescence, H4 neuroglioblastoma cells, dose confirmation, confirmation (AID 2454); format: functional, cell-based;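 further: H4 neuroglioblastoma cells carrying an alpha-synuclein 5'UTR luciferase reporter; potency for inhibition of the luciferase signal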
[16] = blockers of bursicon-stimulated LGR2 cAMP reporter – cell-based, HEK293, CRE-luciferase reporter, cherry pick, set 2, dose response (AID 743343); format: functional;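 further: transfected cells were stimulated with diluted bursicon conditioned medium after compound addition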
[17] = blockade of melanocortin 4 receptor signaling – cell-based, plate reader, cherry pick, counter-screen for LGR2 antagonist project, dose response (AID 743444); format: functional;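 further: transfected HEK 293 cells stimulated with alpha-MSH peptide; potency of inhibitors of the alpha-MSH evoked signal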
[18] = HEK-293T viability loss, compound-treated – cell-based, uHTS hits, cytotoxicity control for B/T-cell NF-kB inhibitor project, dose response (AID 489019); format: functional;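 further: IC50 reflects cytotoxicity as loss of cell viability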
BJ [19] = assay: BJ-TERT fibroblast viability loss – cell-based, RAS-independent, luminescence, dose response (AID 1933); format: functional; details: Homo sapiens
[20] = DRD fibroblast viability loss – cell-based, non-viral oncogenic, luminescence, dose response (AID 1934); format: functional; details: Homo sapiens
BJ [21] = assay: growth inhibition of engineered Ras-driven BJ cells – cell-based, alamar blue fluorescence, cherrypicked samples, dose response (AID 2631); format: functional; details: Homo sapiens;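 further: confirmatory dose-response assay in RAS-dependent BJ fibroblasts engineered with TERT, LT and ST, with cytotoxicity read by fluorescence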
[22] = viability loss in HEK293 cells – cell-based, plate reader, cherry-picked samples, cytotoxicity control, dose response (AID 743446); format: functional
[23] = target: T2, Heat shock factor protein 1 (Mus musculus, UniProt P38532); assay: decrease of HSF1-responsive luciferase luminescence – cell-based, NIH3T3, dose retest, confirmation (AID 2382); format: functional;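 further: NIH3T3 fibroblasts with HSF1-driven luciferase reporter stressed by proteasome inhibitor MG132; luminescence from HSF1-driven luciferase expression after 8 hours of MG132 stress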
T2 sequence (P38532 whole entry): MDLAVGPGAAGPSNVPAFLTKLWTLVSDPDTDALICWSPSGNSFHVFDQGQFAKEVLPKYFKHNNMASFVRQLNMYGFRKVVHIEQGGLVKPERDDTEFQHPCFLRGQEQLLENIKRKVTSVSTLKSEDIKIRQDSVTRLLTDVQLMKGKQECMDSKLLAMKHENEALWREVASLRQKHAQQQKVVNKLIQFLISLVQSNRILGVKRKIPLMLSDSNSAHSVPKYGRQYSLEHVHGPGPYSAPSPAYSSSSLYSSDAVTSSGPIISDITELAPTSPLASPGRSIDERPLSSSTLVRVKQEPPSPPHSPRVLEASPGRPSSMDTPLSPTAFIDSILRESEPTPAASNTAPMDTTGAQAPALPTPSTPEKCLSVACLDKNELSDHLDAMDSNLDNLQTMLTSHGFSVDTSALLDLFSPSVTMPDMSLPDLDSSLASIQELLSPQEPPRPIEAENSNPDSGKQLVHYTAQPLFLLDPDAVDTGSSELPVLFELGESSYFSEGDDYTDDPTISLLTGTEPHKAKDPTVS

Jurkat = assay: blockers of NF-kB activation in T cells – Jurkat, luciferase reporter, luminescence, B- and T-cell, dose response (AID 489004); format: functional, cell-based; details: Homo sapiens;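 further: NF-kB luciferase reporter Jurkat cells stimulated with PMA plus ionomycin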
[24] = A549 cell cytotoxicity, dose response, cytotoxicity control, plate reader, cherry-pick, antagonist series (AID 743412); format: functional, cell-based
BJ [25] = assay: BJ-TERT-LT-ST fibroblast viability loss – cell-based, RAS-independent, luminescence, dose response (AID 1935); format: functional; details: Homo sapiens;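 further: BJ fibroblasts immortalized with TERT plus LT and ST oncogenes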
[26] = alpha-synuclein stem-loop luciferase translation blockers – H4 neuroglioma cells, luminescence, confirmation (AID 1988); format: functional, cell-based
[27] = toxicity toward HepG2 liver cells – cell-based, plate reader, cherry-pick, antagonist series, cytotoxicity control, dose response (AID 743416); format: functional
[28] = target: T3, Rac GTPase-activating protein 1 (Homo sapiens, UniProt Q9H0H5); assay: blockers of MgcRacGAP-driven Rac1 GTP hydrolysis – biochemical, ADP Hunter fluorescence, primary and confirmatory, confirmation (AID 624330); format: functional
T3 sequence (Q9H0H5 whole entry): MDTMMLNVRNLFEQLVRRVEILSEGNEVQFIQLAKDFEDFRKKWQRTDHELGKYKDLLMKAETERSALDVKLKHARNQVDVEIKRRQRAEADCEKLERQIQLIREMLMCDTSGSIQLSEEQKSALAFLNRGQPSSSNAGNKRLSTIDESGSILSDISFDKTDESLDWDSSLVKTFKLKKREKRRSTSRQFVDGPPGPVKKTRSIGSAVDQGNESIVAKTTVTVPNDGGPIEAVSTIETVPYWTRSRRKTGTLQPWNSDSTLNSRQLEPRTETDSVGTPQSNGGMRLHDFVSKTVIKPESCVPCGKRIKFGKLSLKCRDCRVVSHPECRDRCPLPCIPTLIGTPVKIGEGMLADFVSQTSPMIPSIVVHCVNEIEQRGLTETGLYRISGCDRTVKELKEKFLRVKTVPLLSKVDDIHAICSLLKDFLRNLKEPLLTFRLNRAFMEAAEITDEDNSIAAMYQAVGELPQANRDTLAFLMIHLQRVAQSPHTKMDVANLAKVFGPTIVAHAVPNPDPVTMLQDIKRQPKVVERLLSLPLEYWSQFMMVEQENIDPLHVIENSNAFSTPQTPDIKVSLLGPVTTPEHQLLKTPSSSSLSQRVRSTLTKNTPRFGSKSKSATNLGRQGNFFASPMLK

Hexokinase HKDC1 = target: T4, Hexokinase HKDC1 (Homo sapiens, UniProt Q2TB90); assay: inhibition of HKDC1 glucose phosphorylation – biochemical, W721R variant, dose response (AID 504729); format: functional
T4 sequence (Q2TB90 whole entry): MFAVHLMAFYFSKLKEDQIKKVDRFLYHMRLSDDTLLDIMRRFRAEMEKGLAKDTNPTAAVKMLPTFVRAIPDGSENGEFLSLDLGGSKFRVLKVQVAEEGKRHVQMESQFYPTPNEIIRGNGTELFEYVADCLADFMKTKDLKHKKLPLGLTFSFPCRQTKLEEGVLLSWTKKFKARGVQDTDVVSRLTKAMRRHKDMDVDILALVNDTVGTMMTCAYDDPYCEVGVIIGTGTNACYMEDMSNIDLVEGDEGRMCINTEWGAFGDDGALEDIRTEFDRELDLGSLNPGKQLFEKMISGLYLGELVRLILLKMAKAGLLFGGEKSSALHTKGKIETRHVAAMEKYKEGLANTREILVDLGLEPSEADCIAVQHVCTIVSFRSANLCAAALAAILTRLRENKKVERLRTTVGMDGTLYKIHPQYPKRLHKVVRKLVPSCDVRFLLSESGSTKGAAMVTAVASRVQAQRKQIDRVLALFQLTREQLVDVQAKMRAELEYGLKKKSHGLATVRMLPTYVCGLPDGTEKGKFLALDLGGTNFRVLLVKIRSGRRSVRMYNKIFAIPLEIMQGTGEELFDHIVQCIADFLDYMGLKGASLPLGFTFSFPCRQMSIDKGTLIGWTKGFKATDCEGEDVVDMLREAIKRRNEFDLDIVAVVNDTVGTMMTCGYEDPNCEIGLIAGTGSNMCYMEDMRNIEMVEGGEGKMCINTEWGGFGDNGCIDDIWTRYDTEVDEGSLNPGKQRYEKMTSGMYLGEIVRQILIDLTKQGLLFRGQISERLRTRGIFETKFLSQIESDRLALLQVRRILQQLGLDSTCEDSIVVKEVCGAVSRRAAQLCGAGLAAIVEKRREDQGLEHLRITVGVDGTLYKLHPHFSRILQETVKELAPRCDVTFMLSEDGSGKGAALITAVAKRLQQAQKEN

[29] = NIH3T3 cell viability loss – ATP luminescence, mouse fibroblasts, counter-screen, dose response (AID 2010); format: functional, cell-based;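 further: cells exposed to compound for about 90 hours before reading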
[30] = Trypanosoma cruzi growth suppression in host cells – NIH3T3 host cells, beta-gal luminescence, confirmation (AID 2044); format: functional, cell-based;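 further: intracellular parasites grown in NIH/3T3 mouse fibroblasts as host cells; luminescent beta-galactosidase reporter signal from transgenic T. cruzi replicating inside host cells; inhibitors lower the luminescence signal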
Vero [31] = assay: viability of Vero cells under compound – cytotoxicity control for flavivirus capping enzyme inhibitors (AID 588742); format: functional; details: Chlorocebus sabaeus
Genome polyprotein = Genome polyprotein (dengue virus type 2, UniProt P29990); assay: flavivirus cap methylation enzyme inhibition – biochemical, confirmation dose response, primary screen (AID 588689); format: functional
[32] = target: T5, Polyadenylate-binding protein 1 (Homo sapiens, UniProt P11940); assay: MLLE domain peptide-binding blockers, IC50 – biochemical, fluorescence polarization, FITC-PAM2 peptide, dose response (AID 602259); format: functional; details: read-out: IC50_Mean
Beta-galactosidase [33] = target: T1, Beta-galactosidase; assay: detection-enzyme interference by beta-gal modulators – biochemical, E. coli enzyme, set 3, artefact control for CCR6 antagonist project, dose response (AID 504712); format: functional
[34] = target: T5, Polyadenylate-binding protein 1; assay: MLLE binding blockers, Cy5 peptide tracer – biochemical, fluorescence polarization, Cy5-PAM2 peptide, secondary, miRNA deadenylation inhibitor project, dose response (AID 602260); format: functional; details: read-out: IC50_Mean
Beta-arrestin-1 = Beta-arrestin-1 (Homo sapiens, UniProt P49407); assay: beta-arrestin/AP2 interaction blockers, potency – biochemical, cherry pick 1, beta2-adaptin appendage, flow cytometry, dose response (AID 588783); format: functional
Sequence of Beta-arrestin-1 (P49407 whole entry): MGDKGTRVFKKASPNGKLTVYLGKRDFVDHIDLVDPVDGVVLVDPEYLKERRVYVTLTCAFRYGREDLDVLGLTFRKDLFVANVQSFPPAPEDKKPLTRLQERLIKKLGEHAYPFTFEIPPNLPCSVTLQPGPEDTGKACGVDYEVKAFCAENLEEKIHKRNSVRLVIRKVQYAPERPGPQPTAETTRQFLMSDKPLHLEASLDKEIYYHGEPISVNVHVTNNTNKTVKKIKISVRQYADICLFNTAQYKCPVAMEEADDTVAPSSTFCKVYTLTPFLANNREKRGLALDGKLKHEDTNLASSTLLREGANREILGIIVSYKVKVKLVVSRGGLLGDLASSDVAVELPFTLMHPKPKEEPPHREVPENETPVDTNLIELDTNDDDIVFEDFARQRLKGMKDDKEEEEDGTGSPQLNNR

T1 sequence (Q8VNN2 whole entry): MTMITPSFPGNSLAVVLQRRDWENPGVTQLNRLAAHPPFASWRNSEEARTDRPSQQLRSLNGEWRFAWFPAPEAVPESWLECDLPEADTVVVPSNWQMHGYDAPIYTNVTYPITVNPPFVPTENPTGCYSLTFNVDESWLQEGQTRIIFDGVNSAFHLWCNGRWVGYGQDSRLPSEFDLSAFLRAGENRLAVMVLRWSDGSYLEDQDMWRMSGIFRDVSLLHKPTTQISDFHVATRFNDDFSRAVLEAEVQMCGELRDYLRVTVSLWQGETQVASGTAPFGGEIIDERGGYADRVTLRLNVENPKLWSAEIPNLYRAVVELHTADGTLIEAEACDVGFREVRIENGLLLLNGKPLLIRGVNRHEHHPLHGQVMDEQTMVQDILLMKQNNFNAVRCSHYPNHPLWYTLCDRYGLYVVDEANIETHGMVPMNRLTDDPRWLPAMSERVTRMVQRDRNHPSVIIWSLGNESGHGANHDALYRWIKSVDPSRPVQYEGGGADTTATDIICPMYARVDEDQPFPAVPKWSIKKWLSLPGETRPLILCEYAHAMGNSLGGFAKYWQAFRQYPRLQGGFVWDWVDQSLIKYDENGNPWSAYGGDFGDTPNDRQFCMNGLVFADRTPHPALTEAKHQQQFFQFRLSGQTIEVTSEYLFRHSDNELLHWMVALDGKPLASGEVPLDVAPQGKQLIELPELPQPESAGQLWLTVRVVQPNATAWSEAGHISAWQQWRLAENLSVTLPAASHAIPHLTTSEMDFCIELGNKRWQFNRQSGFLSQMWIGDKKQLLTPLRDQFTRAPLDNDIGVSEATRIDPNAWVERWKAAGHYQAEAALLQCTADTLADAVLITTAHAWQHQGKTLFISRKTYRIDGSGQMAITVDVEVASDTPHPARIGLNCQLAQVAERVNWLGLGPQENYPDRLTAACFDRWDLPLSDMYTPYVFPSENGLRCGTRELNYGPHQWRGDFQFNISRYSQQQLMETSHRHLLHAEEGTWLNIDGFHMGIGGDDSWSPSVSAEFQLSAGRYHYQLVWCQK
T5 sequence (P11940 whole entry, the tested form may be a part): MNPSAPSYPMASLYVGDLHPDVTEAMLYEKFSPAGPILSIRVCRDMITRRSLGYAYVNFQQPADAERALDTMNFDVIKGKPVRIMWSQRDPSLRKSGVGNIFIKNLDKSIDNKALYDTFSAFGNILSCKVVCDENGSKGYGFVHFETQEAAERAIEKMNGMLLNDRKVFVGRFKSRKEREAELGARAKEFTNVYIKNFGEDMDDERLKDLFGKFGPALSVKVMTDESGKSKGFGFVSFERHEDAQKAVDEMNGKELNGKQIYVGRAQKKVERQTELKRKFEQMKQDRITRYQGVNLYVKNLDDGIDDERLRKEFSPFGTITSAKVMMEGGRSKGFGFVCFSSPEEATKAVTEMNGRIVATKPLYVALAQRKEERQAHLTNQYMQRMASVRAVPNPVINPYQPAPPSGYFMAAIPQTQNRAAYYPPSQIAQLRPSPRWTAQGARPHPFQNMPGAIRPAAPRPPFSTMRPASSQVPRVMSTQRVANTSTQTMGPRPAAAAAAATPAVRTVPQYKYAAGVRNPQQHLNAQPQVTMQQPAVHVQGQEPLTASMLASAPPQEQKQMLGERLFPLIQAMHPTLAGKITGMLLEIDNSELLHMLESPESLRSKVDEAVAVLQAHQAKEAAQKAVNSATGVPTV
Sequence of Epstein-Barr nuclear antigen 1 (P03211 whole entry): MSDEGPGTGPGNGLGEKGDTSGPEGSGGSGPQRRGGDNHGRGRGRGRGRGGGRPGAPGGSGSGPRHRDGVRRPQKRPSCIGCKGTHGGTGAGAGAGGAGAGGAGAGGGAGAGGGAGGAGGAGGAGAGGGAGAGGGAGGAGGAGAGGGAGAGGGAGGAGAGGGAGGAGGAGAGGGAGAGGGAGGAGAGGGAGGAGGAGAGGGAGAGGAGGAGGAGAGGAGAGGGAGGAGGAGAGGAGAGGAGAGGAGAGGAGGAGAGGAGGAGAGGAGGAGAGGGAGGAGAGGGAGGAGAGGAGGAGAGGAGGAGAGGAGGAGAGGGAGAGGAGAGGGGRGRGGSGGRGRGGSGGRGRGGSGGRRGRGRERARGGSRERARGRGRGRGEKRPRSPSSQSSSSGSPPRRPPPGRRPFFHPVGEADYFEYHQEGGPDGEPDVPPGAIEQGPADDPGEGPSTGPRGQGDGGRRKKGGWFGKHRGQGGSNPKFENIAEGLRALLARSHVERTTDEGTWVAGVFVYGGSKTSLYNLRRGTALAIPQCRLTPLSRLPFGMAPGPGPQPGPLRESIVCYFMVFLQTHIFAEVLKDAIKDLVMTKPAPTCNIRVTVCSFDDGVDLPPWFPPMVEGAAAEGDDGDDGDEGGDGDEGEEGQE
Sequence of Genome polyprotein (P29990 2492-3391 limits assumed): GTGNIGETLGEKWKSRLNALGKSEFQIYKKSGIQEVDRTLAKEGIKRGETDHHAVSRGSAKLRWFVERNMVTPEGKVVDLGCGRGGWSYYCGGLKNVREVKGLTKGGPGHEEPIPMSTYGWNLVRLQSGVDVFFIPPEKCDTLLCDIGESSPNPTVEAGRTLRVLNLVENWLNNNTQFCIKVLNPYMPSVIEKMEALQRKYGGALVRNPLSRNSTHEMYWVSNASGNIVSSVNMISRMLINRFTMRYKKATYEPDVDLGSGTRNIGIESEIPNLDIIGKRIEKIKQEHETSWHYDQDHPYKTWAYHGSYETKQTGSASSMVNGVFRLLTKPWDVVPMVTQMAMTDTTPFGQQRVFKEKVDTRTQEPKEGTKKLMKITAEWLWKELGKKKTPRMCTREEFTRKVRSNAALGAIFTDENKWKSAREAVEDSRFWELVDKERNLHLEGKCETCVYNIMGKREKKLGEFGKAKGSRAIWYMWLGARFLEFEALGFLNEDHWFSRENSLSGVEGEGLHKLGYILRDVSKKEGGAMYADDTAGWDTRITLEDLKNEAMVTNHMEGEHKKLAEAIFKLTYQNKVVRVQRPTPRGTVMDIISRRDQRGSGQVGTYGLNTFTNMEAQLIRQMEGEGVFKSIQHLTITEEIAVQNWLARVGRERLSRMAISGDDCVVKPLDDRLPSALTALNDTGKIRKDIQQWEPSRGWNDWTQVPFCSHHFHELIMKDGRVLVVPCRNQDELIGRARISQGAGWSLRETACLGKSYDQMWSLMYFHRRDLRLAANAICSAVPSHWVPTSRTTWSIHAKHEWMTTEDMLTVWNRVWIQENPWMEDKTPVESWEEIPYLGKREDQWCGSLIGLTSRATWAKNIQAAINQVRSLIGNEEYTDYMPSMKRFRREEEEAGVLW
Sequence of Mu-type opioid receptor (P35372 whole entry): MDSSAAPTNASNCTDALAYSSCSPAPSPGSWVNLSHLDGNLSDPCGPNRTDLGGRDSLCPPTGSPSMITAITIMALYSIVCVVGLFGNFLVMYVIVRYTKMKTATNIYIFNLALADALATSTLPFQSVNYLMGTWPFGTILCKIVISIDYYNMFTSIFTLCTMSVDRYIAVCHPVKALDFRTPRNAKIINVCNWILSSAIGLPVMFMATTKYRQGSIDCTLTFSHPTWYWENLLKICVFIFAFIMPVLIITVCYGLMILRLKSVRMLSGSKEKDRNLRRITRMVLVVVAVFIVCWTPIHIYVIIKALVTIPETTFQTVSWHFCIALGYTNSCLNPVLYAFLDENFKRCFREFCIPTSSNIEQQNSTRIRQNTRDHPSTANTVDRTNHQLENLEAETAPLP
Sequence of 5-hydroxytryptamine receptor 5A (P47898 whole entry): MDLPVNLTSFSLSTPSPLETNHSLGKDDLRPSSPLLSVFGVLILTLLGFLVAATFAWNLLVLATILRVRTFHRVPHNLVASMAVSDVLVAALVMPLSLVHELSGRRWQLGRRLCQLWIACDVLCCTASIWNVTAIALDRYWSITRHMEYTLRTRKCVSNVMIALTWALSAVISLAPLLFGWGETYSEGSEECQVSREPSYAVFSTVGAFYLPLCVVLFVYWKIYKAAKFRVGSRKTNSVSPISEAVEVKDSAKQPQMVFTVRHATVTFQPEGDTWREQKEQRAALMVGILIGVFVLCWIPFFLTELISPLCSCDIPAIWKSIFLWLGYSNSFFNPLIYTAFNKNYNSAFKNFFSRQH
Sequence of Delta-type opioid receptor (P41143 whole entry): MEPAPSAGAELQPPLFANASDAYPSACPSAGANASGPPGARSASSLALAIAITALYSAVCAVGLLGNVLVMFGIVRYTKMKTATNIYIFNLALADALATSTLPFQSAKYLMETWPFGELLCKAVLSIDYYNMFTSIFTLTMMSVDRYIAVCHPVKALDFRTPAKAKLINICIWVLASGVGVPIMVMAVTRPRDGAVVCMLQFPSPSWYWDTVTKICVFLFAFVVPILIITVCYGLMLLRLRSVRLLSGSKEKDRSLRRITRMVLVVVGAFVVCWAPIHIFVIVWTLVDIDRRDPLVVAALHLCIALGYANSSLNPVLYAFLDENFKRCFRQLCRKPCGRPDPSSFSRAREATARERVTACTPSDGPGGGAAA
Sequence of Lytic switch protein BZLF1 (P03206 whole entry): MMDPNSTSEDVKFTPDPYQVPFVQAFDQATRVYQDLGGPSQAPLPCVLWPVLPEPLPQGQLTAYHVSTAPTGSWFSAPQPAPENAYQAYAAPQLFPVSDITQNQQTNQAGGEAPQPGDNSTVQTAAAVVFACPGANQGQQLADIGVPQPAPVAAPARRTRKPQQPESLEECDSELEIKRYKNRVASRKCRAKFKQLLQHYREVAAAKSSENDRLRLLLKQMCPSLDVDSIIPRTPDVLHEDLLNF

COC(=O)c1ccc(Cn2cc(/C=C\[N+](=O)[O-])c3ccccc32)o1
active: IC50 (Vero [1]) > 25 µM | IC50 [2] 6.73 µM | CC50 (Vero [3]) 10.4 µM

Brc1ccc2c(c1)-c1ccccc1C1=NCCN12
inactive: EC50 (HEK293 [4]) > 59.8 µM | EC50 (HEK293 [5]) > 59.8 µM

O=S(=O)(c1c(Cl)cc(Br)cc1Cl)N1CCN(C(=S)NC2CC2)CC1
inactive: EC50 (Mu-type opioid receptor) > 92.5 µM | EC50 [6] > 92.5 µM | EC50 [7] 11.9 µM

CC(C)C(=O)Nc1cccc(C(=O)OCC(=O)c2ccc(Cl)cc2Cl)c1
inactive: EC50 (Beta-galactosidase [9]) > 40 µM
> 40 µM (not active): IC50 [8]
> 111 µM (not active): IC50 [10]
11.3 µM (not active): IC50 [11]

Nc1ncnc2c1ccn2[C@@H]1O[C@H](CO)[C@@H](O)[C@H]1O [TUBERCIDIN]
active: EC50 (cells) 0.223 µM | EC50 [12] 0.252 µM | EC50 [13] < 0.1 µM | EC50 [15] 0.204 µM | AC50 [16] 2.77 µM | AC50 [17] 3.98 µM | EC50 [20] 4.12 µM | EC50 (BJ [21]) < 0.104 µM | AC50 [22] 1.6 µM | EC50 [23] 3.06 µM | IC50 (Jurkat) 7.83 µM | AC50 [24] 0.0912 µM | EC50 (BJ [25]) 5.04 µM | EC50 [26] < 0.1 µM | AC50 [27] 0.25 µM
inactive: IC50 [18] > 80 µM
inconclusive: EC50 (BJ [14]) 5.45 µM | EC50 (BJ [19]) 2.08 µM

O=C1C(Cl)=C(NC(=O)c2ccccc2)C(=O)C(Cl)=C1NC(=O)c1ccccc1
inactive: IC50 [32] > 66 µM | IC50 (Beta-galactosidase [33]) > 66.6 µM | IC50 [34] 44.5 µM
active: IC50 [28] 6.06 µM | IC50 (Hexokinase HKDC1) 17.3 µM | EC50 [29] 2.78 µM | EC50 [30] 2.13 µM | CC50 (Vero [31]) 29.5 µM | IC50 (Genome polyprotein) 3.53 µM | IC50 (Beta-arrestin-1) 4.97 µM
